Data from US8178571B2, “Unsubstituted and substituted 4-benzyl-1,3-dihydro-imidazole-2-thiones acting as specific or selective alpha2 adrenergic agonists and methods for using the same” (Allergan, Inc., priority 2004, dated 2012).

Legend:
Assay type in all cases: cell-based
[1] = target: T1, alpha2B adrenergic receptor (Homo sapiens, UniProt P18089); assay: Receptor Selection and Amplification Technology (RSAT) assay, alpha2B; conditions: for Intrinsic Activity Alpha 2B: RSAT, NIH-3T3 cells, ratio of maximal effect to that of standard full agonist brimonidine (UK14304), NA = not active at concentrations less than 10 micromolar; for Specificity or selectivity for alpha2B (and/or alpha2C) over alpha2A adrenergic receptors: statement in words, RSAT assay
T1 construct: expressed in transfected cells; host or cells: NIH-3T3 cells
T1 sequence (P18089 1-450): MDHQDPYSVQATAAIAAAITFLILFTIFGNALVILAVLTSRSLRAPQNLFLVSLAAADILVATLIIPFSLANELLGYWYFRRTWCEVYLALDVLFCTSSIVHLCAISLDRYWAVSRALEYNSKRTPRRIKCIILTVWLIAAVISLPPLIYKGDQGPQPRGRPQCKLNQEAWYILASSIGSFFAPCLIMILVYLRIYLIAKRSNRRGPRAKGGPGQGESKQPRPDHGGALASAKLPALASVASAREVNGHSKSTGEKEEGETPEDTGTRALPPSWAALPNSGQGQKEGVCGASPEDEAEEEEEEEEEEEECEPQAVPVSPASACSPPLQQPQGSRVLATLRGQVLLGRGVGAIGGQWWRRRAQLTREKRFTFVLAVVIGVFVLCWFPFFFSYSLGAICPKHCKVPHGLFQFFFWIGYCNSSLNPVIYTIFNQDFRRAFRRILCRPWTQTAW
Text: (§1) The imidazole-2-thione compounds of Formula 1 and the novel compounds 1 through 5 are used in accordance with the present invention as agonists of alpha2 adrenergic receptors. Some compounds of Formula 1 may act as specific or selective agonists of alpha2B and/or to alpha2C adrenergic receptors, in preference over alpha2A adrenergic receptors. […] The specific or selective activity of the compounds of Formula 1 in general and of the novel compounds of the invention can be tested in an assay titled Receptor Selection and Amplification technology (RSAT) assay, which is described in the publication by Messier et. Al., 1995, Pharmacol. Toxicol. 76, pp. 308-311 (incorporated herein by reference) and is also described below. Another reference pertinent to this assay is Conklin et al. (1993) Nature 363:274-6, Receptor Selection and Amplification Technology (RSAT) assay, also incorporated herein by reference.
The RSAT assay measures a receptor-mediated loss of contact inhibition that results in selective proliferation of receptor-containing cells in a mixed population of confluent cells. The increase in cell number is assessed with an appropriate transfected marker gene such as beta-galactosidase, the activity of which can be easily measured in a 96-well format. Receptors that activate the G protein, Gq, elicit this response. Alpha2 receptors, which normally couple to Gi, activate the RSAT response when coexpressed with a hybrid Gq protein that has a Gi receptor recognition domain, called Gq/i5.
NIH-3T3 cells are plated at a density of 2×10^6 cells in 15 cm dishes and maintained in Dulbecco's modified Eagle's medium supplemented with 10% calf serum. One day later, cells are cotransfected by calcium phosphate precipitation with mammalian expression plasmids encoding p-SV-beta-galactosidase (5-10 μg), receptor (1-2 μg) and G protein (1-2 μg). 40 μg salmon sperm DNA may also be included in the transfection mixture. Fresh media is added on the following day and 1-2 days later, cells are harvested and frozen in 50 assay aliquots. Cells are thawed and 100 μl added to 100 μl aliquots of various concentrations of drugs in triplicate in 96-well dishes. Incubations continue 72-96 hr at 37° C. After washing with phosphate-buffered saline, beta-galactosidase enzyme activity is determined by adding 200 μl of the chromogenic substrate (consisting of 3.5 mM o-nitrophenyl-beta-D-galactopyranoside and 0.5% nonidet P-40 in phosphate buffered saline), incubating overnight at 30° C. and measuring optical density at 420 nm. The absorbance is a measure of enzyme activity, which depends on cell number and reflects a receptor-mediated cell proliferation. The efficacy or intrinsic activity is calculated as a ratio of the maximal effect of the drug to the maximal effect of a standard full agonist for each receptor subtype. Brimonidine, also called UK14304, the chemical structure of which is shown below, is used as the standard agonist for the alpha2A, alpha2B and alpha2C receptors.

[2] = target: T2, alpha2C adrenergic receptor (Homo sapiens, UniProt P18825); assay: Receptor Selection and Amplification Technology (RSAT) assay, alpha2C; conditions: NIH-3T3 cells, ratio of maximal effect to that of standard full agonist brimonidine (UK14304), NA = not active at concentrations less than 10 micromolar
T2 construct: expressed in transfected cells; host or cells: NIH-3T3 cells
T2 sequence (P18825 1-462): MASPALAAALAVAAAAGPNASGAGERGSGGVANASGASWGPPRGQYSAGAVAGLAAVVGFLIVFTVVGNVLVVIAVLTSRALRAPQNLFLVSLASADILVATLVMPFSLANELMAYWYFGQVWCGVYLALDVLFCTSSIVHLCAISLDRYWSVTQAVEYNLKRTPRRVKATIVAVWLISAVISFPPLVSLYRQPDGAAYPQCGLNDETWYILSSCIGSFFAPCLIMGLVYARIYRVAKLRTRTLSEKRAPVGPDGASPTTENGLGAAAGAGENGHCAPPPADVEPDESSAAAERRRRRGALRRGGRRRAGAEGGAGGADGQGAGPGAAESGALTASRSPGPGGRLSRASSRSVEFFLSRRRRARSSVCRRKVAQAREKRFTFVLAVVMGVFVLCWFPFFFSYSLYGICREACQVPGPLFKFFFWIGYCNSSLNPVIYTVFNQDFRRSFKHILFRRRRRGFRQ
Text: as §1, with “Another reference pertinent to this assay is Conklin et al. (1993) Nature 363:274-6, Receptor Selection and Amplification Technology (RSAT) assay, also incorporated herein by reference.” left out
(§2) The RSAT assay measures a receptor-mediated loss of contact inhibition that results in selective proliferation of receptor-containing cells in a mixed population of confluent cells. The increase in cell number is assessed with an appropriate transfected marker gene such as beta-galactosidase, the activity of which can be easily measured in a 96-well format. […]
(§3) NIH-3T3 cells are plated at a density of 2×10^6 cells in 15 cm dishes and maintained in Dulbecco's modified Eagle's medium supplemented with 10% calf serum. […] The absorbance is a measure of enzyme activity, which depends on cell number and reflects a receptor-mediated cell proliferation. […]

[3] = target: T3, alpha2A adrenergic receptor (Homo sapiens, UniProt P08913); assay: Receptor Selection and Amplification Technology (RSAT) assay, alpha2A; conditions: NIH-3T3 cells, ratio of maximal effect to that of standard full agonist brimonidine (UK14304), NA = not active at concentrations less than 10 micromolar
T3 construct: expressed in transfected cells; host or cells: NIH-3T3 cells
T3 sequence (P08913 1-465): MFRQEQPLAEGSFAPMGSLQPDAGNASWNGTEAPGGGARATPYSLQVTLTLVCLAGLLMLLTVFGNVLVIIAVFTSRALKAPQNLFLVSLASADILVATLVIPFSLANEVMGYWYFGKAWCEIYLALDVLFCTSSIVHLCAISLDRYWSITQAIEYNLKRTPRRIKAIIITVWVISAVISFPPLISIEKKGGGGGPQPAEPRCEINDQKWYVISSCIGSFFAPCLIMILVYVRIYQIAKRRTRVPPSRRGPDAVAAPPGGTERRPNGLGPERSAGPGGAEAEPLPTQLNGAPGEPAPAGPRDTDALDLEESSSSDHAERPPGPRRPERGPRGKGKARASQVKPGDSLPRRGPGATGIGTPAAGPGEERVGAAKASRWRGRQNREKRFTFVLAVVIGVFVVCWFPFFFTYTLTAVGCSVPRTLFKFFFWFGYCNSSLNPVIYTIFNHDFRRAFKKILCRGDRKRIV
Text: as §1, with “Another reference pertinent to this assay is Conklin et al. (1993) Nature 363:274-6, Receptor Selection and Amplification Technology (RSAT) assay, also incorporated herein by reference.” left out
as §2, §3

Structure (SMILES)	Intrinsic Activity Alpha 2B [1]	Specificity or selectivity for alpha2B (and/or alpha2C) over alpha2A adrenergic receptors [1]	Intrinsic Activity Alpha 2C [2]	Intrinsic Activity Alpha 2A [3]
Fc1ccc(Cc2c[nH]c(=S)[nH]2)cc1 [Compound 4, 4-(4-fluoro-benzyl)-1,3-dihydro-imidazole-2-thione]	0.92	specific agonists of alpha2B agonists in preference over alpha2A and alpha2C adrenergic receptors		
S=c1[nH]cc(Cc2ccc(Cl)cc2Cl)[nH]1 [Compound 5, 4-(2,4-dichloro-benzyl)-1,3-dihydro-imidazole-2-thione]	0.95	specific agonists of alpha2B agonists in preference over alpha2A and alpha2C adrenergic receptors		
N#Cc1ccc(-c2ccccc2Cc2c[nH]c(=S)[nH]2)cc1 [Compound 6, 2′-(2-Thioxo-2,3-dihydro-1H-imidazol-4-ylmethyl)-biphenyl-4-carbonitrile]	0.70		0.71	
S=c1[nH]cc(Cc2c(Cl)cccc2Cl)[nH]1 [Compound 1, 4-(2,6-dichloro-benzyl)-1,3-dihydro-imidazole-2-thione]	1.11		1.18	0.74
Fc1c(Cl)cccc1Cc1c[nH]c(=S)[nH]1 [Compound 2, 4-(3-chloro-2-fluoro-benzyl)-1,3-dihydro-imidazole-2-thione]	1.05			0.78
Fc1ccccc1Cc1c[nH]c(=S)[nH]1 [Compound 3, 4-(2-fluoro-benzyl)-1,3-dihydro-imidazole-2-thione]	1.3	specific agonists of alpha2B agonists in preference over alpha2A and alpha2C adrenergic receptors		
